Results published in patent US20240182444A1, “ANTI-VIRAL COMPOUNDS” (Aligos Therapeutics, Inc., priority 2022, published 2024).

Columns and labels:
[1] = in vitro; conditions: human
[2] = system: SARS-CoV-2 B.1.1.7 lineage; test: microbe, parasite or virus in culture; type: cell-based; conditions: Severe acute respiratory syndrome coronavirus 2, 96 h; read-out: A549-dual_ACE2_TMPRSS2 (EC50)
[3] = Cytotoxicity in HeLa cells without OC43 virus; type: cell-based; conditions: human, HeLa cells (uninfected), in parallel
Method: (§1) The human beta-coronavirus OC43 was purchased from ATCC (Manassas, VA) and propagated using HCT-8 human colorectal epithelial cells (ATCC). HeLa human cervical epithelial cells (ATCC) were used as susceptible host cell lines and were cultured using EMEM media, supplemented with 10% fetal bovine serum (FBS), 1% (v/v) penicillin/streptomycin (P/S), 1% (v/v) HEPES and 1% (v/v) cellgro Glutagro™ supplement (all Corning, Manassas, VA) at 37° C. For the OC43 antiviral assay, 1.5×10^4 HeLa cells per well were plated in 100 μL complete media in white 96-well plates with clear bottoms at 37° C. for up to 24 h to facilitate attachment and allow cells to recover from seeding stresses. Next day, the cell culture medium was removed. Serially diluted compounds in 100 μL assay media (EMEM, 2% FBS, 1% P/S, 1% cellgro Glutagro™ supplement, 1% HEPES) were added to the cells and incubated for 4 h at 37° C. in a humidified 5% CO2 incubator. 100 μL of OC43 virus stock was diluted to a concentration known to produce optimal cytopathic effect, inducing 80-90% reduction in cell viability. 96-well plates were incubated for 6 days at 33° C.; each plate contains uninfected control wells as well as virus-infected wells that were not treated with compound. Cytotoxicity plates without the addition of OC43 virus were carried out in parallel. At the end of the incubation period, 100 μL cell culture supernatant was replaced with 100 μL cell-titer-glo reagent (Promega, Madison, WI) and incubated for at least 10 min at rt prior to measuring luminescence. Luminescence was measured on a Perkin Elmer (Waltham, MA) Envision plate reader. Antiviral % inhibition was calculated as follows: [(Compound treated cells infected sample)−(no compound infected control)]/[(Uninfected control)−(no compound infected control)]*100; Using GraphPad (San Diego, CA) prism software version 8.3.1, the antiviral dose-response plot was generated as a sigmoidal fit, log(inhibitor) vs response-variable slope (four parameters) model and the EC50 was calculated which is the predicted compound concentration corresponding to a 50% inhibition of the viral cytopathic effect.
(§2) Table 2 indicates related EC50 and CC50 values for the tested compounds ‘A’ indicates an EC50<100 nM, ‘B’ indicates an EC50 of ≥100 nM and <1000 nM, ‘C’ indicates an EC50≥1000 nM and <10000 nM and ‘D’ indicates an EC50≥10000 nM and <100000 nM. For CC50, the values are reported in micromolar (M), ‘A’ indicates a CC50≥10000 nM and ‘B’ indicates a CC50≥1 μM and <10 μM.

[4] = biological target: T1, human cathepsin L (Homo sapiens, UniProt P07711); test: Cathepsin L assay; type: biochemical; conditions: 10 pM human cathepsin L, Z-FR-AMC 2 μM
T1 construct: purchased R&D Systems
Method: For the cathepsin L assay, 10 pM of human cathepsin L (R&D Systems; Minneapolis, MN) was preincubated for 30 mins with test compounds. Reactions were initiated by the addition of a peptide substrate Z-FR-AMC (final concentration 2 μM, Anaspec; Fremont, CA). Fluorescence was measured at 2-minute intervals for 30 mins using a 355/460 excitation/emission filter module on an Envision plate reader (Perkin Elmer; Waltham, MA). The IC50 values were calculated for each assay by fitting the curves using a four-parameter equation in GraphPad Prism.
Table 4 indicates related IC50 values for the tested compounds where ‘A’ indicates an IC50≥10000 nM, ‘B’ indicates an IC50 of ≥1000 nM and <10000 nM, ‘C’ indicates an IC50; ≥100 nM and <1000 nM, ‘D’ indicates an IC50<100 nM.

[5] = biological target: T2, SARS-Cov-2 3CLpro (Severe acute respiratory syndrome coronavirus 2, UniProt P0DTD1); test: SARS-Cov-2 3CLpro protease assay (SAMDI-MS); type: biochemical; conditions: 30 mins preincubation, duplex peptide substrates; read-out: SARS-Cov-2 (3CLpro IC50)
T2 construct: 3CLpro was added using a Multidrop Combi

[6] = system: human beta-coronavirus OC43; test: OC43 coronavirus antiviral assay in HeLa cells; type: cell-based; conditions: Betacoronavirus 1, 144 h, OC43, 6 days at 33° C., cell-titer-glo
Method: as §1, §2

[7] = system: SARS-CoV-2; conditions: A549-ACE2 expressing TMPRSS2; cited from earlier work
[8] = system: SARS-CoV-2; conditions: VeroE6, A549-ACE2 and/or HeLa-ACE2; cited from earlier work
[9] = biological target: 3Clpro (Severe acute respiratory syndrome coronavirus 2, UniProt P0DTD1); conditions: cited from earlier work

T1 sequence (P07711 114-333): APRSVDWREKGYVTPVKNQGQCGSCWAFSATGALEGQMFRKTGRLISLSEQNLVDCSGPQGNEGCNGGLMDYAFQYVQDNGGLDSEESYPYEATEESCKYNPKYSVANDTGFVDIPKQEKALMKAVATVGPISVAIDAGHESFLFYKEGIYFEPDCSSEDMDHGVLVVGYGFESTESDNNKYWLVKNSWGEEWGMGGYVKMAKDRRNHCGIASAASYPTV

Structure (SMILES) | CC50 [1] | EC50 [2] | CC50 at 6 days [3] | IC50 [4] | IC50 [5] | EC50 [6] | antiviral effect when TMPRSS2 was expressed [7] | inhibition of SARS-CoV-2 [8] | inhibitory effect on the 3Clpro [9]
CC(C)(C)[C@H](NC(=O)C(F)(F)F)C(=O)N1C[C@H]2[C@@H]([C@H]1C(=O)NC(C#N)c1cnc3ccccn13)[C@H]1C=C[C@@H]2C1 (stereo partly drawn) [Compound 2, (1S,3aR,4S,7R,7aS)—N-(cyano(imidazo[1,2-a]pyridin-3-yl)methyl)-2-((S)-3,3-dimethyl-2-(2,2,2-trifluoroacetamido)butanoyl)-2,3,3a,4,7,7a-hexahydro-1H-4,7-methanoisoindole-1-carboxamide] | > 1000 nM | 100 to 1000 nM | ≥ 10000 nM | ≥ 10000 nM | < 20 nM | 100 to 1000 nM |  |  | 
CC(C)(C)[C@H](NC(=O)C(F)(F)F)C(=O)N1C[C@H]2[C@@H]([C@H]1C(=O)NC(C#N)c1cncc3ccccc13)[C@H]1C=C[C@@H]2C1 (stereo partly drawn) [Compound 1, (1S,3aR,4S,7R,7aS)—N-(cyano(isoquinolin-4-yl)methyl)-2-((S)-3,3-dimethyl-2-(2,2,2-trifluoroacetamido)butanoyl)-2,3,3a,4,7,7a-hexahydro-1H-4,7-methanoisoindole-1-carboxamide] | > 1000 nM | < 100 nM | ≥ 10000 nM | ≥ 10000 nM | < 20 nM | < 100 nM |  |  | 
CC(C)(C)[C@H](NC(=O)C(F)(F)F)C(=O)N1C[C@@H]2[C@H]3C[C@@H]([C@@H]2[C@H]1C(=O)NC(C#N)c1cnn2ccccc12)[C@H](F)C3 (some centres unmarked) [Compound 25] | > 1000 nM | 100 to 1000 nM | ≥ 10000 nM |  | < 20 nM | 100 to 1000 nM |  |  | 
CC(C)(C)[C@H](NC(=O)C(F)(F)F)C(=O)N1C[C@H]2[C@@H]([C@H]1C(=O)NC(C#N)c1cccnc1)[C@H]1C=C[C@@H]2C1 (stereo partly drawn) [Compound 3, (1R,2S,3S,6R,7S)—N-[cyano(pyridin-3-yl)methyl]-4-[(2S)-3,3-dimethyl-2-(2,2,2-trifluoroacetamido)butanoyl]-4-azatricyclo[5.2.1.0^{2,6}]dec-8-ene-3-carboxamide] | > 1000 nM | 100 to 1000 nM | ≥ 10000 nM | ≥ 10000 nM | < 20 nM | 100 to 1000 nM |  |  | 
COc1cccc2cncc(C(C#N)NC(=O)[C@@H]3[C@@H]4[C@H](CN3C(=O)[C@@H](NC(=O)C(F)(F)F)C(C)(C)C)[C@H]3C[C@@H]4[C@H](F)C3)c12 (some centres unmarked) [Compound 26] | > 1000 nM | < 100 nM | ≥ 10000 nM |  | < 20 nM | < 100 nM |  |  | 
CC(C)(C)[C@H](NC(=O)C(F)(F)F)C(=O)N1C[C@@H]2[C@H]3C[C@@H]([C@@H]2[C@H]1C(=O)NC(C#N)c1cncc2cccnc12)[C@H](F)C3 (stereo partly drawn) [Compound 9, (1S,2R,3S,6R,7S,9R)—N-[cyano(1,6-naphthyridin-8-yl)methyl]-4-[(2S)-3,3-dimethyl-2-(2,2,2-trifluoroacetamido)butanoyl]-9-fluoro-4-azatricyclo[5.2.1.0^{2,6}]decane-3-carboxamide] | > 1000 nM | < 100 nM | ≥ 10000 nM |  | < 20 nM | < 100 nM |  |  | 
CC(C)(C)[C@H](NC(=O)C(F)(F)F)C(=O)N1CC2(CC2)C[C@H]1C(=O)NC(C#N)c1cnn2ccccc12 (stereo partly drawn) [Compound 17, (6S)—N-(cyano(pyrazolo[1,5-a]pyridin-3-yl)methyl)-5-((S)-3,3-dimethyl-2-(2,2,2-trifluoroacetamido)butanoyl)-5-azaspiro[2.4]heptane-6-carboxamide] | > 1000 nM | 100 to 1000 nM | ≥ 10000 nM |  | 20 to 200 nM | 100 to 1000 nM |  |  | 
CC(C)(C)[C@H](NC(=O)C(F)(F)F)C(=O)N1C[C@H]2[C@@H]([C@H]1C(=O)NC(C#N)c1cnc3ccccc3c1)[C@H]1C=C[C@@H]2C1 (some centres unmarked) [Compound 15] | > 1000 nM | 100 to 1000 nM | ≥ 10000 nM |  | < 20 nM | 100 to 1000 nM |  |  | 
CC(C)(C)[C@H](NC(=O)C(F)(F)F)C(=O)N1C[C@@H]2[C@H]3C[C@@H]([C@@H]2[C@H]1C(=O)NC(C#N)c1cnn2cc(F)ccc12)[C@H](F)C3 (some centres unmarked) [Compound 20] | > 1000 nM | < 100 nM | ≥ 10000 nM |  | < 20 nM | 100 to 1000 nM |  |  | 
COc1cccc2cncc([C@H](C#N)NC(=O)[C@@H]3[C@@H]4[C@H](CN3C(=O)[C@@H](NC(=O)C(F)(F)F)C(C)(C)C)[C@H]3C[C@@H]4[C@H](F)C3)c12 [Compound 29] | > 1000 nM | < 100 nM | ≥ 10000 nM |  | 20 to 200 nM | 100 to 1000 nM |  |  | 
CN1CCN(C(=O)N[C@@H](Cc2ccccc2)C(=O)N[C@H](/C=C/S(=O)(=O)c2ccccc2)CCc2ccccc2)CC1 [Compound K117777] |  |  |  |  |  |  | abolished | potent inhibition | lacks an inhibitory effect
CC(C)(C)[C@H](NC(=O)C(F)(F)F)C(=O)N1C[C@@H]2[C@H]3C[C@@H]([C@@H]2[C@H]1C(=O)NC(C#N)c1cncc2cnccc12)[C@H](F)C3 (some centres unmarked) [Compound 22] | > 1000 nM | 100 to 1000 nM | ≥ 10000 nM |  | < 20 nM | 1000 to 10000 nM |  |  | 
N#CC(NC(=O)[C@@H]1[C@@H]2[C@H](CN1C(=O)c1cc3c(F)cc(F)cc3[nH]1)[C@@H]1C=C[C@H]2C1)c1cncc2ccccc12 (stereo partly drawn) [Compound 8, (1R,2S,3S,6R,7S)—N-[cyano(isoquinolin-4-yl)methyl]-4-(4,6-difluoro-1H-indole-2-carbonyl)-4-azatricyclo[5.2.1.0^{2,6}]dec-8-ene-3-carboxamide] | > 1000 nM | 100 to 1000 nM | 1000 to 10000 nM |  | 20 to 200 nM | 100 to 1000 nM |  |  | 
CC(C)(C)[C@H](NC(=O)C(F)(F)F)C(=O)N1C[C@H]2[C@@H]([C@H]1C(=O)NC1(C#N)CCc3ccncc31)[C@H]1C=C[C@@H]2C1 (stereo partly drawn) [Compound 5, (1R,2S,3S,6R,7S)—N-{7-cyano-5H,6H-cyclopenta[c]pyridin-7-yl}-4-[(2S)-3,3-dimethyl-2-(2,2,2-trifluoroacetamido)butanoyl]-4-azatricyclo[5.2.1.0^{2,6}]dec-8-ene-3-carboxamide] | > 1000 nM | ≥ 1000 nM | ≥ 10000 nM |  | 200 to 2000 nM | 1000 to 10000 nM |  |  | 
